In one assay the test system is GABAA. The experiment in a line: GABAA ion channel assay. The assay is classed as cell-based. Particulars: FLIPR Tetra, up to 30 µM, read-out: RC50 (the source's name). Here is the method: Ion Channel Assays: Cell lines were grown, plated, and loaded with 1× loading buffer containing 1× dye and 2.5 mM freshly prepared probenecid. Assays were performed, and activity was measured using a FLIPR Tetra. Percent of activation and percent of inhibition were calculated to determine agonist and antagonist activity, respectively. […]
in complementation with EA generating a unit of active β-gal and based assay for the detection of dopamine, norepinephrine or sero-production of a chemiluminescent signal upon the addition of Path- tonin transporter activity in cells expressing these transporters. The Hunter detection reagents. kit employs a fluorescent substrate that mimics the biogenic amine neurotransmitters that are taken into the cell through these specific transporters, resulting in increased intracellular fluorescence inten-sity. […]
KINOMEscan® Assay fluorescence for improved signal/noise ratio. […]
Compounds that bind the kinase active site and directly (sterically) be monitored within a single experiment. or indirectly (allosterically) prevent kinase binding to the immobi-lized ligand, will reduce the amount of kinase captured on the solid Calcium Assay […]
kinase have no effect on the amount of kinase captured on the of changes in intracellular calcium. […] In a similar manner, dissociation con- an increase of dye fluorescence. […]

The target of a further assay is T1, ADRB1 (Homo sapiens, UniProt P08588).
T1 construct: host or cells: cAMP Hunter cell line
T1 sequence (P08588 whole entry): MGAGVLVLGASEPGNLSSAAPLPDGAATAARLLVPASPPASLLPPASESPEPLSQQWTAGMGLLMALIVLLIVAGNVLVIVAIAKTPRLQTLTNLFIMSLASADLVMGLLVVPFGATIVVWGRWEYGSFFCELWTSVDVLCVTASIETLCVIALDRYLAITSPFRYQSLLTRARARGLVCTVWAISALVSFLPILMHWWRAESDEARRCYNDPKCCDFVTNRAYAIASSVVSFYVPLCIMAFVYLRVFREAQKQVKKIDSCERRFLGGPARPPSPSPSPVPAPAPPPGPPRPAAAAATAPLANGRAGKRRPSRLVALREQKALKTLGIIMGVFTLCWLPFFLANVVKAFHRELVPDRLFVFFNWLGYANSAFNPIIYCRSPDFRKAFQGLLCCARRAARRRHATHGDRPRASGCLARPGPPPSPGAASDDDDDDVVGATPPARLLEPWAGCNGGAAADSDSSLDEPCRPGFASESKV
The experiment in a line: ADRB1 GPCR cAMP modulation assay. The assay is classed as cell-based. As to conditions: compared to the controls. Here is the method:
GPCR cAMP Modulation Assays: cAMP Hunter cell lines were grown, plated, and subjected to Eurofins’ DiscoverX HitHunter cAMP XS+ assay. Gs agonist activity, Gi agonist activity, and antagonist activity-induced assays were read using chemiluminescent signal detection. The percentage of activity was calculated for Gs and Gi agonist assays, and the percentage of inhibition was calculated for Gs antagonist assays. […]
cAMP Second ary Messenger Assay pound results in the release of calcium from intracellular stores and DiscoverX has developed a panel of cell lines stably expressing non- an increase in dye fluorescence that is measured in real-time. tagged GPCRs that endogenously signal through cAMP. […]
The enzyme is split into two complementary portions: Enzyme Ac-ceptor (EA) and Enzyme Donor (ED). […] Active enzyme can then convert a chemilumines-cent substrate, generating an output signal detectable on a standard The NHR is tagged with the ProLink™ (PK) component of our EFC microplate reader. assay system, and the SRCP domain is fused to the Enzyme Ac-ceptor component (EA) expressed in the nucleus. […]

Ends that are not written are not given here. Bounds are passed on as bounds.

With APWHLSSQYSRT [CTP], the EC50 in the assay on GABAA (agonist (opener)) is more than 30 µM. In the assay with GABAA (antagonist (blocker)), the IC50 was more than 30 µM. Besides, on ADRB1, the “agonist or antagonist action” value is reported as “no significant action as either an agonist or antagonist”.

(Values after publication PMC10818749, “Toxicity Studies of Cardiac-Targeting Peptide Reveal a Robust Safety Profile” (Pharmaceutics, 2024).)
